Data as given in ChEMBL document CHEMBL1201862, “PubChem BioAssay data set” (2004).
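96-well plates; 48 h exposure; 5 concentrations. Endpoints by linear interpolation between flanking doses. Not reached: highest tested concentration assigned. GI50 = concentration required for 50% inhibition of growth.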 Calls of active or inactive are those of the source. No stated cut-off is given here; in the data, active = GI50 up to about 1.1 µM and inactive = higher.

Legend:
Test in all cases: NCI anticancer screen, dose series, 48 h
A549 = system: A549
ACHN = system: ACHN
CCRF-CEM = system: CCRF-CEM
COLO 205 = system: COLO 205
HCT-15 = system: HCT-15
HT-29 = system: HT-29
LOX IMVI = system: LOX IMVI
NCI-H23 = system: NCI-H23
NCI-H460 = system: NCI-H460
OVCAR-4 = system: OVCAR-4
OVCAR-5 = system: OVCAR-5
OVCAR-8 = system: OVCAR-8
SF-268 = system: SF-268
SK-MEL-28 = system: SK-MEL-28
SK-MEL-2 = system: SK-MEL-2
SK-MEL-5 = system: SK-MEL-5
SK-OV-3 = system: SK-OV-3
SW-620 = system: SW-620
U-251 = system: U-251
UO-31 = system: UO-31

| Structure (SMILES) | GI50 (A549) | GI50 (ACHN) | GI50 (CCRF-CEM) | GI50 (COLO 205) | GI50 (HCT-15) [µM] | GI50 (HT-29) | GI50 (LOX IMVI) | GI50 (NCI-H23) | GI50 (NCI-H460) | GI50 (OVCAR-4) | GI50 (OVCAR-5) | GI50 (OVCAR-8) | GI50 (SF-268) | GI50 (SK-MEL-28) | GI50 (SK-MEL-2) | GI50 (SK-MEL-5) | GI50 (SK-OV-3) | GI50 (SW-620) | GI50 (U-251) | GI50 (UO-31) |
| --- | --- | --- | --- | --- | --- | --- | --- | --- | --- | --- | --- | --- | --- | --- | --- | --- | --- | --- | --- | --- |
| Cc1cc2oc3c(ccc(=O)n3C)c(=O)c2c(C)c1Cl | 45 µM (inactive) | 57.4 µM (inactive) | 38.1 µM (inactive) | 73.5 µM (inactive) | 77.6 | 38.3 µM (inactive) | 49.9 µM (inactive) | 44.6 µM (inactive) | 61 µM (inactive) | > 100 µM (inactive) | 72.9 µM (inactive) | 76.2 µM (inactive) | 55.5 µM (inactive) | 26.5 µM (inactive) | 40.6 µM (inactive) | 29 µM (inactive) | 75.5 µM (inactive) | 82.6 µM (inactive) | 38.2 µM (inactive) | 73.5 µM (inactive) |
| Cc1nc2[nH]ncn2c(=O)c1CCO | > 10 µM (inactive) | > 10 µM (inactive) | > 10 µM (inactive) | > 10 µM (inactive) | > 10 | > 10 µM (inactive) | > 10 µM (inactive) | > 10 µM (inactive) | > 10 µM (inactive) | > 10 µM (inactive) | > 10 µM (inactive) | > 10 µM (inactive) | > 10 µM (inactive) | 2.56 µM (inactive) | > 10 µM (inactive) | > 10 µM (inactive) | > 10 µM (inactive) | > 10 µM (inactive) | > 10 µM (inactive) | > 10 µM (inactive) |
| CN(NC(=O)c1cccs1)C1=NCCCN1 | > 100 µM (inactive) | > 100 µM (inactive) | > 100 µM (inactive) | > 100 µM (inactive) | > 100 | > 100 µM (inactive) | > 100 µM (inactive) | > 100 µM (inactive) | > 100 µM (inactive) | > 100 µM (inactive) | > 100 µM (inactive) | > 100 µM (inactive) | > 100 µM (inactive) | > 100 µM (inactive) | > 100 µM (inactive) | > 100 µM (inactive) | > 100 µM (inactive) | > 100 µM (inactive) | > 100 µM (inactive) | > 100 µM (inactive) |
| O=C(Nc1cccc2ccccc12)Nn1cnnc1 | > 100 µM (inactive) | > 100 µM (inactive) | > 100 µM (inactive) | > 100 µM (inactive) | > 100 | > 100 µM (inactive) | > 100 µM (inactive) | > 100 µM (inactive) | > 100 µM (inactive) | > 100 µM (inactive) | > 100 µM (inactive) | 19.1 µM (inactive) | > 100 µM (inactive) | > 100 µM (inactive) | > 100 µM (inactive) | > 100 µM (inactive) | > 100 µM (inactive) | > 100 µM (inactive) | > 100 µM (inactive) | > 100 µM (inactive) |
| CC(C)c1cccc(C(C)C)c1OS(=O)(=O)NC(=O)OC(C(F)(F)F)C(F)(F)F | 28.6 µM (inactive) | 37.1 µM (inactive) | 6.81 µM (inactive) | 88.3 µM (inactive) | 34.1 |  | 50 µM (inactive) | 45.7 µM (inactive) | 46.7 µM (inactive) | 50.1 µM (inactive) | > 100 µM (inactive) | 46.5 µM (inactive) | 95.7 µM (inactive) | > 100 µM (inactive) | 35.8 µM (inactive) | 53.2 µM (inactive) | 46.7 µM (inactive) | 51.6 µM (inactive) | 43.7 µM (inactive) | 30.1 µM (inactive) |
| Nc1nnc(CCC(=O)Nc2cc(Cl)ccc2Cl)n1N | > 100 µM (inactive) | > 100 µM (inactive) | > 100 µM (inactive) | > 100 µM (inactive) | > 100 | > 100 µM (inactive) | > 100 µM (inactive) | > 100 µM (inactive) | > 100 µM (inactive) | > 100 µM (inactive) | > 100 µM (inactive) | > 100 µM (inactive) | > 100 µM (inactive) | > 100 µM (inactive) | > 100 µM (inactive) | > 100 µM (inactive) | > 100 µM (inactive) | > 100 µM (inactive) | > 100 µM (inactive) | > 100 µM (inactive) |
| CCc1c(-c2ccccc2)[nH]c2ccccc2c1=O | 13.4 µM (inactive) | 36.7 µM (inactive) | 72.4 µM (inactive) |  | 28.2 | 57.7 µM (inactive) | 48.1 µM (inactive) | 55.3 µM (inactive) | 5.16 µM (inactive) | 33.2 µM (inactive) | > 100 µM (inactive) |  | 80.7 µM (inactive) | 67.9 µM (inactive) | 71.1 µM (inactive) | 27.4 µM (inactive) | 28.1 µM (inactive) |  | > 100 µM (inactive) | 0.0412 µM (active) |
| C=C1c2nc3ccccc3n2C=C(c2ccccc2)N1c1ccc([N+](=O)[O-])cc1 | 2.31 µM (inactive) | 1.67 µM (inactive) | 9.46 µM (inactive) | 6.52 µM (inactive) | 5.75 | 3.47 µM (inactive) | 5.36 µM (inactive) | 9.38 µM (inactive) | 1.72 µM (inactive) | 0.324 µM (active) | 10.7 µM (inactive) | 4.49 µM (inactive) | 8.11 µM (inactive) | 24.6 µM (inactive) | 17.7 µM (inactive) | 4.02 µM (inactive) | 1.79 µM (inactive) | 14.4 µM (inactive) | 5.33 µM (inactive) | 3.3 µM (inactive) |
| Brc1cccc(Nc2ncnc3sc4c(c23)CCC(Nc2cccc(Br)c2)C4)c1 (stereo unspecified) | > 100 µM (inactive) | > 100 µM (inactive) | > 100 µM (inactive) | > 100 µM (inactive) | > 100 | > 100 µM (inactive) | > 100 µM (inactive) | > 100 µM (inactive) | > 100 µM (inactive) | > 100 µM (inactive) | > 100 µM (inactive) | > 100 µM (inactive) | > 100 µM (inactive) | > 100 µM (inactive) | > 100 µM (inactive) | > 100 µM (inactive) | > 100 µM (inactive) | > 100 µM (inactive) | > 100 µM (inactive) | > 100 µM (inactive) |
| CCCCNC1=C2C(=O)NN=C2CO1 | > 100 µM (inactive) | > 100 µM (inactive) | > 100 µM (inactive) | > 100 µM (inactive) | > 100 | > 100 µM (inactive) | > 100 µM (inactive) | > 100 µM (inactive) | > 100 µM (inactive) | > 100 µM (inactive) | > 100 µM (inactive) | > 100 µM (inactive) | > 100 µM (inactive) | > 100 µM (inactive) | > 100 µM (inactive) | > 100 µM (inactive) | > 100 µM (inactive) | > 100 µM (inactive) | > 100 µM (inactive) | > 100 µM (inactive) |
| COc1cccc(/C=C/C(=O)N2CC(CCl)c3c2cc(N)c2ccccc32)c1 (stereo unspecified) | 0.00153 µM (active) | 0.000264 µM (active) | < 0.01 µM (active) | 0.0146 µM (active) | 0.034 | < 0.01 µM (active) | 0.000548 µM (active) | 0.00065 µM (active) | 0.000115 µM (active) | 0.00344 µM (active) | 0.00804 µM (active) | 0.00109 µM (active) | 0.000693 µM (active) | 0.0114 µM (active) | 0.00834 µM (active) | < 0.01 µM (active) | 0.00371 µM (active) | 0.00194 µM (active) | 0.000344 µM (active) | 0.00171 µM (active) |
